# ChEMBL document CHEMBL4184129, “Inhibitors of nuclease and redox activity of apurinic/apyrimidinic endonuclease 1/redox effector factor 1 (APE1/Ref-1)” (Bioorg Med Chem, 2017)
# Key:
# [1] = biological target: T1, DNA repair nuclease/redox regulator APEX1 (Homo sapiens, UniProt P27695); test: Inhibition of N-terminal hexa-His tagged human APE1 expressed in Escherichia coli BL21 (Rosetta) using fluorescein-dabcyl-containing oligonucleotide as substrate measured over 5 mins by high-throughput fluorescence assay
# T1 sequence (P27695 whole entry): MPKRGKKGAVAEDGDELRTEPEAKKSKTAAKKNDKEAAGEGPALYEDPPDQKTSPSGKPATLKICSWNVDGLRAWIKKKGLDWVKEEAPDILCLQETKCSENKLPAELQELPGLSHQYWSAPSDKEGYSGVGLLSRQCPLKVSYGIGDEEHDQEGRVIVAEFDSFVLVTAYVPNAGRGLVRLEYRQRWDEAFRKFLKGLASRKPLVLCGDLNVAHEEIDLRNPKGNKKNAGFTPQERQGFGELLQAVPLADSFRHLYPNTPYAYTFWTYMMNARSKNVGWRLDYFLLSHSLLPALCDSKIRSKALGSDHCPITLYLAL
# [2] = biological target: T1, DNA repair nuclease/redox regulator APEX1; test: Inhibition of recombinant human APE1 using a 5'-FAM/3'-Dabsyl labelled double-stranded DNA as substrate after 30 mins by fluorescence-based assay
# [3] = biological target: T1, DNA repair nuclease/redox regulator APEX1; test: Inhibition of nuclease activity of APE1 in human glioblastoma cells assessed as reduction in AP site DNA cleavage; type: cell-based
# [4] = biological target: T1, DNA repair nuclease/redox regulator APEX1; test: Inhibition of His-tagged human APE1 expressed in Escherichia coli M15 assessed as reduction in cleavage of 26 mer substrate to 13 mer products pre-incubated for 30 mins before substrate addition for 15 mins using 5' end [32P] AP site containing 26 mer oligonucleotide by polyacrylamide gel electrophoresis
# [5] = biological target: T1, DNA repair nuclease/redox regulator APEX1; test: Inhibition of human APE1 using a 5'-TAMRA labelled THF abasic site double-stranded oligodeoxynucleotide as substrate in presence of Mg2+ by fluorescence polarization displacement assay
# [6] = biological target: T1, DNA repair nuclease/redox regulator APEX1; test: Inhibition of recombinant human APE1 using 5'-F-GCCCCCXGGGGACGTACGATATCCCGCTCC-3' as substrate preincubated for 10 mins followed by substrate addition measured at 5 mins intervals for 30 mins by fluorescence-based assay
# [7] = biological target: T1, DNA repair nuclease/redox regulator APEX1; test: Inhibition of APE1 in human HeLa cells assessed as reduction in AP site cleavage 5'-[gamma-32P]CTCGCAAGUGGGTACCGA-3' as substrate after 1 hr; type: cell-based
# [8] = biological target: T1, DNA repair nuclease/redox regulator APEX1; test: Inhibition of […] activity of full length N-terminal hexa-His SUMO-fused human APE1 using HEX-labeled THF oligonucleotide as substrate preincubated for 30 to 120 mins followed by substrate addition measured after 15 mins by fluorescence assay
# [9] = system: Panel NCI-60 (60 carcinoma cell lines); test: Growth inhibition in human NCI60 cells after 72 hrs by CellTiterGlo assay; type: functional
# [10] = biological target: T1, DNA repair nuclease/redox regulator APEX1; test: Inhibition of human APE1 assessed as reduction in abasic sites DNA cleavage using 6-FAM/TAMRA labelled 17-Tphi as substrate by fluorescence-based assay
# [11] = biological target: T1, DNA repair nuclease/redox regulator APEX1; test: Inhibition of human APE1 measured every 5 mins for 60 mins by FAM fluorophore based fluorescence assay
# [12] = biological target: T1, DNA repair nuclease/redox regulator APEX1; test: Inhibition of APE1 in human HeLa cells; type: cell-based
# [13] = biological target: T1, DNA repair nuclease/redox regulator APEX1; test: Binding affinity to full length human APE1 expressed in Escherichia coli BL21/DE3
compound,measurement,setting,value
Cc1cc(C)c2c(N)c3cccc(C)c3nc2n1,IC50,[1],2100 nM
O=C(O)CC[C@H]1N[C@@]2(C(=O)Nc3c(Cl)cccc32)[C@H]2C(=O)N(Cc3ccc4c(c3)OCO4)C(=O)[C@@H]12,IC50,[2],1800 nM
Brc1cc(-c2cc(Br)c(Br)c(Br)c2)cc(Br)c1Br,IC50,[3],200 nM
CC(C)(C)c1ccc(OC(=O)c2sc3ccccc3c2Cl)c(C(C)(C)C)c1,IC50,[3],800 nM
COc1c(C(=O)O)cccc1C(=O)NCc1cccc(Cl)c1,IC50,[4],16000 nM
Cc1sc(Nc2cc(Cl)cc(Cl)c2)nc1-c1ccc(-c2ccccc2F)cc1,IC50,[3],900 nM
O=C1NC(=O)N(Cc2ccco2)C(=O)/C1=C/C=C/c1ccco1,IC50,[5],2800 nM
O=C(OCC(=O)N1NC(c2ccc3ccccc3c2)=C[C@@H]1c1ccccc1)c1ccc([N+](=O)[O-])s1,IC50,[6],3000 nM
COc1cccc(CNC(=O)c2cccc(C(=O)O)c2OC)c1,IC50,[4],19000 nM
COc1c(C(=O)O)cccc1C(=O)NCc1ccc(Cl)c(Cl)c1,IC50,[4],18000 nM
O=S(=O)(Oc1ccc(-c2ccc(OS(=O)(=O)c3ccc(Cl)c(Cl)c3)cc2)cc1)c1ccc(Cl)c(Cl)c1,IC50,[3],1800 nM
C=C1S/C(=N\c2ccccc2Cl)N(C(=O)c2sc3ccccc3c2Cl)C12CCCCC2,IC50,[3],1400 nM
O=c1oc(-c2ccc(Cl)cc2Cl)nc2ccc([N+](=O)[O-])cc12,IC50,[3],2000 nM
O=[N+]([O-])c1cccc(S(=O)(=O)[N-]c2nc3ccccc3nc2-[n+]2ccc(Cc3ccccc3)cc2)c1,IC50,[2],6800 nM
O=C(O)c1cc2cccc([N+](=O)[O-])c2[nH]1,IC50,[7],3060 nM
O=C(c1cc2ccccc2o1)[C@@H](O)c1nc2ccccc2s1,IC50,[6],2000 nM
CCCCCCCCC/C(=C\C1=C(C)C(=O)C(OC)=C(OC)C1=O)C(=O)NOC,IC50,[8],8500 nM
CCn1c2ccccc2c2cc(/C=N/Nc3cc(C)nc4cc5c(cc34)OCO5)ccc21,GI50,[9],4200 nM
COc1cc2c(ccc3cc(OC)c(OC)c(O)c32)cc1O,IC50,[5],400 nM
c1cc2ccc3cc2cc1CNCCNCCNCc1ccc2ccc(cc2c1)CNCCNCCNC3,IC50,[10],57 nM
Cc1sc(-c2ccc(Cl)cc2)nc1-c1ccc(-c2ccccc2F)cc1,IC50,[3],1300 nM
Cc1ccc(C)n1-c1ccc(OCC(=O)O)cc1,IC50,[1],1700 nM
c1cc2ccc3cc2cc1CNCCOCCNCc1ccc2ccc(cc2c1)CNCCOCCNC3,IC50,[10],55 nM
Nc1c(S(N)(=O)=O)cc(S(N)(=O)=O)cc1S(N)(=O)=O,IC50,[11],1400 nM
COc1ccc(CNC(=O)c2cccc(C(=O)O)c2OC)cc1OC,IC50,[4],18000 nM
CCOC(=O)c1cc(-c2ccc(/C=C3/C(=O)N(c4ccc(C(=O)O)cc4)N=C3C)o2)ccc1Cl,IC50,[5],6800 nM
CC1=C/C(=C(/c2ccc(O)c(C)c2)c2ccccc2C(=O)O)C=CC1=O,IC50,[11],1700 nM
O=C(CSc1ncn[nH]1)Nc1cccc2c1C(=O)c1ccccc1C2=O,IC50,[12],4000 nM
O=C(Nc1cccc(Cl)c1)c1noc2c1CCC2,IC50,[1],1600 nM
Cc1coc2c1C(=O)C(=O)c1c-2ccc2c1CCCC2(C)C [TANSHINONE IIA],Kd,[13],0.88 nM
O=c1oc(-c2ccccc2F)nc2cc(Cl)ccc12,IC50,[3],1600 nM
CC(C)(C)c1ccc(S(=O)(=O)Oc2ccc(-c3ccc(Oc4c(Cl)cccc4[N+](=O)[O-])cc3)cc2)cc1,IC50,[3],1700 nM
